Test results published in patent US6576670B1, “Use of a 5HT2A and 5HT2A/C receptor antagonist for treating snoring and high resistance syndrome of upper anatomical airways” (Sanofi—Synthelabo, priority 1998, dated 2003).
Read-outs that look alike come from different tables or passages of the source.

Assays:
[1] = decerebrated newborn rats; cited from earlier work
[2] = decerebrated newborn cats; high doses; cited from earlier work
[3] = tested on: 5HT2 receptor; details: in vivo; cited from earlier work
[4] = target: 5HT2A receptor (Homo sapiens, UniProt P28223); details: cited from earlier work
[5] = target: T1, rat stomach fundus (5HT2B) (Rattus norvegicus, UniProt P30994); details: isolated tissue; indicates 5HT2A specificity versus 5HT2B; cited from earlier work
T1 construct: from tissue; host or cells: rat stomach fundus (isolated tissue)

[6] = tested on: 5HT1D receptor; details: cited from earlier work
[7] = target: T2, 5HT1A receptor (Homo sapiens, UniProt P08908); details: cited from earlier work
T2 sequence (P08908 1-422): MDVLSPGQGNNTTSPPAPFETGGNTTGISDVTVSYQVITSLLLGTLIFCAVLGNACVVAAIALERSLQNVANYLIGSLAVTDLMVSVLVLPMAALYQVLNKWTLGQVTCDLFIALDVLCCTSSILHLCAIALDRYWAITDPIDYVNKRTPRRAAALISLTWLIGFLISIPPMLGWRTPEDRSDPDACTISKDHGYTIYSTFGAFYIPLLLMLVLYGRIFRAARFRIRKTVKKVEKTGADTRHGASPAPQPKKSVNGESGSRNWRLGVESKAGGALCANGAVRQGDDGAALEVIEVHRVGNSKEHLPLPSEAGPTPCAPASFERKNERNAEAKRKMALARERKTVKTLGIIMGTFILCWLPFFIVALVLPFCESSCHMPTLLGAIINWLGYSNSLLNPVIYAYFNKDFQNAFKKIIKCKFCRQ

[8] = tested on: slow wave sleep; assay: sleep study in young healthy subjects; format: in vivo, human; details: young (18 to 35 years old) healthy subjects
[9] = target: T3, 5HT2C receptor (Homo sapiens, UniProt P28335); details: cited from earlier work
T3 sequence (P28335 33-458): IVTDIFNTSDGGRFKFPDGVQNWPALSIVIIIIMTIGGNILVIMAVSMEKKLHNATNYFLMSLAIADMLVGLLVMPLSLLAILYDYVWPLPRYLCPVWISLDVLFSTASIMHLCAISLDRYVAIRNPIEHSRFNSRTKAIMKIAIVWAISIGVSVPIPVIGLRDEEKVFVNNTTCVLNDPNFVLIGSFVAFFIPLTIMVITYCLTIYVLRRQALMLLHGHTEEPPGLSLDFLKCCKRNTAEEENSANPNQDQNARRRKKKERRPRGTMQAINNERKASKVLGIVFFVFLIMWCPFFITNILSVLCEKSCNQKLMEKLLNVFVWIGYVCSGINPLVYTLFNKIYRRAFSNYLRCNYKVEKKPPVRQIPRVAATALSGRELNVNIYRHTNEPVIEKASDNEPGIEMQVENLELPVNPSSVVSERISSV

[10] = target: 5HT1B receptor (Homo sapiens, UniProt P28222); details: cited from earlier work
[11] = tested on: upper airway high resistance syndrome; assay: double blind clinical study versus placebo in upper airway high resistance syndrome; format: in vivo, human; details: patients; gelatin capsule, for example 5 mg, daily with the evening meal
Method: The effect of compound A is determined during a clinical study carried out according to a double blind design versus placebo in which patients with upper airway high resistance syndrome characterized by the presence of respiratory efforts with repeated wakefulness or microwakefulness and clinical symptoms such as diurnal somnolence and/or hypertension and/or fatigue and/or morning headache and/or nycturia, and the like took part. One gelatin capsule containing an active dose of compound A, for example 5 mg, is administered daily with the evening meal.

[12] = tested on: 5HT2 receptor; details: rodents; cited from earlier work
[13] = tested on: spinal 5HT2 receptors; details: newborn rat tissue preparations in vitro, cited from earlier work
[14] = tested on: 5HT2 receptor; details: rats; cited from earlier work
[15] = tested on: 5HT2 receptors; details: administered systemically; English bulldog; cited from earlier work

5HT2A receptor, sequence (P28223 whole entry): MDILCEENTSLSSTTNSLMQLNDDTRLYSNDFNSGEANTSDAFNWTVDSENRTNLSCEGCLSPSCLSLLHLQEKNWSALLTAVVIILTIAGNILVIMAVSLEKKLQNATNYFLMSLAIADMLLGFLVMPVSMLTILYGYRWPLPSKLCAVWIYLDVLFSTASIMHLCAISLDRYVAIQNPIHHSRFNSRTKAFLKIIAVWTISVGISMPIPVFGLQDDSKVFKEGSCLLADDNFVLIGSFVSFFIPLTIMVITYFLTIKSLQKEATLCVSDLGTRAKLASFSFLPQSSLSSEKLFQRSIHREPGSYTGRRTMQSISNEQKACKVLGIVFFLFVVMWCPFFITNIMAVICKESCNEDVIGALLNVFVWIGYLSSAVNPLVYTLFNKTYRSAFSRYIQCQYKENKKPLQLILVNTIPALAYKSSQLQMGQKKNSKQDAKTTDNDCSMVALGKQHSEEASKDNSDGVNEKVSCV
T1 sequence (P30994 whole entry): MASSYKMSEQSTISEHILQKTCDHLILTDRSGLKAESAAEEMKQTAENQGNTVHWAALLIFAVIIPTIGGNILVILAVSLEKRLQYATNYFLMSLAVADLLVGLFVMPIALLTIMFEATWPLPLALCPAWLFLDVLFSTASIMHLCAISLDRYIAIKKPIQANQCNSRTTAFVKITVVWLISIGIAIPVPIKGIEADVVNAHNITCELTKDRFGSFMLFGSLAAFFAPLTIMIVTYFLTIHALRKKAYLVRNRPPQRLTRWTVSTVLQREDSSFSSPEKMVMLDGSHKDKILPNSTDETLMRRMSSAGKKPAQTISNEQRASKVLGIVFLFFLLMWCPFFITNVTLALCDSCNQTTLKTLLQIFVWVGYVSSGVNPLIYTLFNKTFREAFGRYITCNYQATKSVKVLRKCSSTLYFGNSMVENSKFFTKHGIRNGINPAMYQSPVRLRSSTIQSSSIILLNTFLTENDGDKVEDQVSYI
5HT1B receptor, sequence (P28222 whole entry): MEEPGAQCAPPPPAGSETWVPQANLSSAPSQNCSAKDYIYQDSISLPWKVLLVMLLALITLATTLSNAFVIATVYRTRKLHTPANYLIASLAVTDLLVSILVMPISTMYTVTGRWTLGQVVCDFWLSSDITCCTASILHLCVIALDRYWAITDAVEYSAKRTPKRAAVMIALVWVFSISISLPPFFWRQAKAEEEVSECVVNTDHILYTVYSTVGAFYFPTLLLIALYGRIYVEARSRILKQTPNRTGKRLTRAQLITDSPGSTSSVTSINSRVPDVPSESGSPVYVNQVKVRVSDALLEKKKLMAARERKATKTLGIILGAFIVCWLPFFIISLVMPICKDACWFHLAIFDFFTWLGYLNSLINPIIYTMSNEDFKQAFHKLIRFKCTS

NCCc1c[nH]c2ccc(O)cc12 [5-hydroxytryptamine]
apnea after administration [1]: no apnea
apnea after administration [2]: induced prolonged central apneas

CN(C)CCSc1nc2ccccc2cc1-c1ccccc1 [ICI 169 369]
slow wave sleep time [3]: regulate or increase

CN(C)CCO/N=C(/C=C/c1ccc(O)cc1)c1ccccc1F [compound A, (1Z,2E)-1-(2-fluorophenyl)-3-(4-hydroxyphenyl)prop-2-en-1-one-O-(2-dimethylaminoethyl)oxime hemifumarate]
antagonism of the 5HT2A receptor [4]: antagonist which is specific for the 5HT2A receptor
activity on rat stomach fundus [5]: absence of activity
affinity for the 5HT1D receptor [6]: no affinity
affinity for the 5HT1A receptor [7]: no affinity
paradoxical sleep [8]: not being modified
stages 1 and 2 of slow wave sleep [8]: slightly reduced
duration of stages 3 and 4 of slow wave sleep ([8]; from the dose of 1 mg): doubling
affinity for the 5HT2C receptor [9]: moderate affinity
affinity for the 5HT1B receptor [10]: no affinity
clinical symptoms [11]: reduction
number of wakings or microwakings [11]: marked reduction
respiratory efforts [11]: marked reduction
binding in the brain [12]: predominantly binds to the regions of the brain containing the 5HT2 receptor
depressant effect of 5-hydroxytryptamine on the activity of the hypoglossal nerve [13]: inhibits
tonic cervical activity induced by 5-hydroxytryptamine ([13]; pretreatment): prevents or significantly reduces

O=C(c1ccc(F)cc1)C1CCN(CCn2c(=O)[nH]c3ccccc3c2=O)CC1 [ketanserin]
apnea induced by 5-HT [14]: inhibit
increase in pulmonary resistance induced by 5-HT [14]: inhibit

Cc1nc2sccn2c(=O)c1CCN1CCC(=C(c2ccc(F)cc2)c2ccc(F)cc2)CC1 [ritanserin]
slow wave sleep time [3]: regulate or increase
activity of the diaphragm [15]: slight reduction
activity of the dilatory muscle of the upper respiratory tracts [15]: marked reduction
